Test results reported in PubChem BioAssay (NCI).
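Grown in 96-well plates, cells were treated for 48 hours with each compound at five concentrations. Insufficient inhibition: endpoint recorded as highest concentration tested. Here, GI50 denotes the concentration required for 50% inhibition of growth. TGI: total growth inhibition.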

What was measured:
Experiment in all cases: DTP human tumour cell line panel, 48 h
[1] = test system: MOLT-4 leukemia
[2] = test system: PC-3 prostate
[3] = test system: NCI-H23 lung
[4] = test system: UACC-257 melanoma
[5] = test system: HCT-15 colon
[6] = test system: T-47D breast
[7] = test system: SK-MEL-28 melanoma
[8] = test system: DU-145 prostate
[9] = test system: K-562 leukemia
[10] = test system: HS 578T breast

| SMILES | TGI [1] | TGI [2] | TGI [3] | TGI [4] | TGI [5] | TGI [6] | TGI [7] | TGI [8] | TGI [9] | TGI [10] | GI50 [1] | GI50 [2] | GI50 [3] | GI50 [4] | GI50 [5] | GI50 [6] | GI50 [7] | GI50 [8] | GI50 [9] | GI50 [10] |
| --- | --- | --- | --- | --- | --- | --- | --- | --- | --- | --- | --- | --- | --- | --- | --- | --- | --- | --- | --- | --- |
| CCCc1nc(Cl)nc(Cl)c1Cl | 0.551 µM | 1.6 µM | 2.04 µM | 2 µM | 3.15 µM | 4.49 µM | 2.05 µM | 9.93 µM | 0.118 µM | 8.46 µM |  |  |  |  |  |  |  |  |  |  |
| CCOC(=O)c1sc(-c2ccc(OS(=O)(=O)C[C@]34CCC(CC3=O)C4(C)C)c(C=O)c2)nc1C | 2.22 µM | > 50 µM | 2.64 µM | 3.66 µM | 1.69 µM | 2.46 µM | 2.12 µM | > 50 µM | > 13.5 µM | 4.23 µM | 0.797 µM | 1.4 µM | 1.04 µM | 1.26 µM | 0.761 µM | 0.78 µM | 0.982 µM | 1.55 µM | 0.753 µM | 1.32 µM |
| COc1ccc(-c2nc(-c3nc4cc(Cl)c(F)cc4[nH]3)c3ccccn23)cc1 | > 100 µM | > 100 µM | > 100 µM | 13.2 µM | > 100 µM | 33.1 µM | > 100 µM | > 100 µM | > 100 µM | > 100 µM | 4.21 µM | 4.58 µM | 29.1 µM | 3.15 µM | 5.72 µM | 3.54 µM | > 100 µM | 6.58 µM | 4.84 µM | 12.2 µM |
| COc1ccc(Nc2nc(Nc3cc(C)[nH]n3)c3cc(OC)c(OC)cc3n2)cc1 | 2.58 µM |  | 2.82 µM |  | 2.45 µM | 3.48 µM | 3.26 µM | 2.24 µM |  | 3.15 µM | 0.389 µM |  | 1.16 µM |  | 0.685 µM | 1.07 µM | 1.7 µM | 1.03 µM |  | 1.25 µM |
| C=CC(C)(C)n1cc(C2=C(O)C(=O)C(c3cn(C(C)(C)C=C)c4ccccc34)=C(O)C2=O)c2ccccc21 | > 45.8 µM | 7.13 µM | 7.83 µM | 9.73 µM | 5.01 µM | 23.1 µM | 35 µM | 18.9 µM | > 100 µM | 5.11 µM |  |  |  |  |  |  |  |  |  |  |
| Clc1ccc(/C=C/c2ccc3ccccc3n2)cc1 | > 100 µM | > 100 µM | > 100 µM | > 100 µM | > 100 µM | > 100 µM | > 100 µM | 5.41 µM | > 100 µM | 10.5 µM | 3.01 µM | 1.74 µM | 3.08 µM | 1.83 µM | 2.08 µM | 5.16 µM | 3.18 µM | 2.23 µM | 0.439 µM | 0.617 µM |
| C=C1C(=O)O[C@H]2[C@H]1CC/C(Cn1cc(-c3ccc(N)cc3)nn1)=C\CC[C@@]1(C)O[C@@H]21 | 28.6 µM | 24.6 µM | 7.72 µM |  | 3.37 µM | 5.77 µM | 7.54 µM | 14.1 µM | > 100 µM | 27.4 µM | 2.87 µM | 10.1 µM | 2.49 µM |  | 1.42 µM | 2.23 µM | 2.71 µM | 3.65 µM | 2.99 µM | 4.46 µM |
| O=C(NN1C(=O)CSC1c1cccc(Cl)c1)C(O)c1ccccc1 (configuration not stated) | > 100 µM | > 100 µM | > 100 µM | > 100 µM | > 100 µM | > 100 µM | > 100 µM | > 100 µM | > 100 µM | > 100 µM | 77.8 µM | 60.6 µM | 56.3 µM | > 100 µM | 68.6 µM | 67.7 µM | > 100 µM | 83.4 µM | 27.4 µM | > 100 µM |
| CO[C@H]1/C=C/O[C@@]2(C)Oc3c(C)c(O)c4c(O)c(c(/C=N/N5CCN(C)CC5)c(O)c4c3C2=O)NC(=O)/C(C)=C\C=C\[C@H](C)[C@H](O)[C@@H](C)[C@@H](O)[C@@H](C)[C@H](OC(C)=O)[C@@H]1C | > 100 µM | > 100 µM |  | > 100 µM |  | > 100 µM | > 100 µM | > 100 µM | > 100 µM |  |  |  |  |  |  |  |  |  |  |  |
| C=C1C(=O)O[C@H]2[C@H]1CC/C(COC(=O)NCc1ccc(Cn3c(=O)sn(CCCCC)c3=O)cc1)=C\CC[C@@]1(C)O[C@@H]21 | 4.06 µM | 3.8 µM | 4.1 µM | 3.03 µM | 3.23 µM | 4 µM | 3.47 µM | 3.04 µM |  | 14 µM | 0.59 µM | 1.92 µM | 1.94 µM | 1.57 µM | 1.66 µM | 1.75 µM | 1.85 µM | 1.68 µM |  | 2.79 µM |
| Cn1cc(-c2cc(-c3cn(C)c4ccc(Cl)cc34)[nH]n2)c2cc(Cl)ccc21 | 11.8 µM | 14.2 µM | 7.69 µM | 34.2 µM | 15.1 µM | 20.7 µM | 79.6 µM | > 100 µM | 5.98 µM | 20 µM | 1.55 µM | 3.05 µM | 2.48 µM | 4.26 µM | 3.01 µM | 4.06 µM | 4.8 µM | 9.6 µM | 2.78 µM | 3.27 µM |
| FC(F)(F)c1ccc(-c2nn3ncccc3c2-c2ccnc(Nc3ccc4c(c3)OCCO4)n2)cc1 | > 23.3 µM | > 25 µM | > 25 µM | > 25 µM | > 25 µM | > 25 µM | > 25 µM | > 25 µM | > 25 µM | > 25 µM | 6.11 µM | 7.32 µM | 14.7 µM | 7.23 µM | 8.18 µM | 4.78 µM | > 25 µM | 16.4 µM | 8.79 µM | 10.9 µM |
| CC(NC(=O)Cc1ccc(C(F)(F)P(=O)(OCc2ccc([N+](=O)[O-])o2)N(C)CCCCCl)cc1)c1ccc(OCC2CCCCC2)c(C(N)=O)c1 (configuration not stated) | 7.06 µM | > 34.8 µM | 15.3 µM | 34.7 µM | 16.1 µM | 15 µM | 25.9 µM | 16.7 µM | 17.9 µM | 38.4 µM | 2.19 µM | 6.91 µM | 4.11 µM | 17.5 µM | 4.85 µM | 4.33 µM | 12.2 µM | 6.2 µM | 4.5 µM | 8.21 µM |
